Source: patent US20090099167A1, “Organic compounds” (Novartis Institutes for Biomedical Research, priority 2004, published 2009)
Like-named read-outs stand apart in the source and are kept apart here.

Key:
Assay type in all cases: biochemical
[1] = target: T1, human IGF-IR (Homo sapiens, UniProt P08069); assay: IGF-1R tyrosine kinase assay, GST-IGF-1R; settings: Table 5; read-out: IGF-1R, IC50 class
T1 construct: expresses the amino acid region 950-1337 of the mature peptide cytoplasmic domain of the human IGF-IR; made in house; host or cells: baculovirus (Bac-to-Bac)
Source text: The inhibition of IGF-1R and Ins-R can be determined as follows: The baculovirus donor vector pfbgx3IGFIRcd is used to generate a recombinant baculovirus that expresses the amino acid region 950-1337 of the mature peptide cytoplasmic domain of the human IGF-IR. To generate the cDNA fragment encoding the amino acid region 919-1343 of the intra-cytoplasmic kinase domain of the human insulin receptor, pC5hInsR is used. The fragments of the human IGF-IR and Ins-R are cloned, expressed and small-scale purified as a factor Xa-cleavable glutathione-S-transferase (GST)-fusion protein using the Bac-to-Bac™ system (GIBCO BRL) of recombinant baculovirus generation. Virus containing media is collected from the transfected cell culture and used for infection to increase its titer. Virus containing media obtained after two rounds of infection is used for large-scale protein expression. Cell extracts are prepared and loaded onto a glutathione-Sepharose (Pharmacia) column. After washing, the GST-tagged proteins are then eluted with a glutathione-containing buffer. Purified protein is stored at −70° C. in elution buffer. Tyrosine protein kinase assays with purified GST-IGF-1R and GST-ins-R are carried in a final volume of 30 μl containing 20 mM Tris-HCl, pH 7.6, 10 mM MgCl2, 0.01 mM Na3VO4, 1% DMSO, 1 mM DTT, 3 μg/ml poly(Glu,Tyr) 4:1 and 10 μM ATP (γ-[^33P]-ATP 0.1 μCi). The assay is performed in 96-well plates at ambient temperature for 20 min and terminated by addition of 25 μl 0.05 M EDTA pH 7.0. An aliquot of 40 μl is spotted with a multichannel dispenser on Whatman P81 membranes mounted in a Millipore Microtiter filter manifold connected to a low vacuum source. After elimination of liquid, the membrane is transferred to a sequence of 4 washing baths containing 0.5% H3PO4 and one with EtOH (shaking incubation for 10 min each), dried, mounted onto a Hewlett Packard TopCount manifold added 10 μl Microscint® and counted. Compounds of formula (I) show up to 90% inhibition of Ins-R at 10,000 nM, preferably between 60-90% inhibition. The inhibition of Tek can be determined as follows: The procedure of the expression, purification and assay these kinases has been described. Fabbro et al., Pharmacol. Ther. 82(2-3) 293-301 (1999). In brief, the glutathione S-transferase (GST) gene from the pAcG1 vector (Pharmingen) is excised with EcoRV and EcoRI and inserted into the cloning site of the Fast-Bac baculoviral vector (GIBCO) creating a 5530 bp vector with N-terminal cloning sites derived from the pAcG1 fusion vector (FBG0). The C-terminal cloning site may be any cloning site (from the Fast-Bac vector) downstream of the N-terminal cloning site used. N-terminally GST-fused (pAcG1, Pharmingen) KDR, Flt-1, Flk-1, Tek and PDGFR-β kinase domains are obtained from ProQinase, Freiburg, Germany. Tek is recloned into the FBG1 vector by EcoRI excision and ligation into EcoRI digested FBG1 (FBG1-Tek). The coding sequences for the whole cytoplasmic domain of c-Kit (aa 544-976) and c-Fms (aa 538-972) are amplified by PCR from human uterus and from human bone marrow cDNA libraries (Clontech), respectively. The amplified DNA fragments are fused to GST by cloning them into FBG1 as BamHI-EcoRI insertions, to yield FBG1-c-Kit and FBG1-c-Fms. Tek is recloned into the FBG0 transfer vector by EcoRI excision and ligation into EcoRI digested FBG0 (FBG-Tie2/Tek). FGFR-1 and c-met kinase domains are obtained by PCR from human A431 cells. N-terminal primers contain an overhanging EcoRI site, while C-terminal primers contain a XhoI site to aid cloning into the transfer vectors. After digestion of both the PCR fragments and FBG0 the cleavage products are gel-purified and ligated together to form the kinase constructs (FBG-Met, FBG-FGFR-1).

[2] = target: T2, c-Abl kinase (Homo sapiens, UniProt P00519); assay: c-Abl protein-tyrosine kinase filter binding assay
T2 construct: The His-tagged kinase domain of c-Abl is cloned and expressed in the baculovirus/Sf9 system; His; made in house; host or cells: Sf9 (baculovirus)
T2 sequence (P00519 242-493 limits assumed): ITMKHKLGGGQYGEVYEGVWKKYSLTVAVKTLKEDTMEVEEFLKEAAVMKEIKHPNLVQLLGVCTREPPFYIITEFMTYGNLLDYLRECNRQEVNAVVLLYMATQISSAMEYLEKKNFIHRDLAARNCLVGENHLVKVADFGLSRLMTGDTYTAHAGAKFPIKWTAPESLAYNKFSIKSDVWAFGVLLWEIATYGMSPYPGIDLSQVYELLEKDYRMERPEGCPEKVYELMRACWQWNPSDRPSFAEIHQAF
Method: The His-tagged kinase domain of c-Abl is cloned and expressed in the baculovirus/Sf9 system as described by Bhat et al. in J. Biol. Chem. 1997; 272:16170-16175. A protein of 37 kD (c-Abl kinase) is purified by a two-step procedure over a Cobalt metal chelate column followed by an anion exchange column with a yield of 1-2 mg/L of Sf9 cells (Bhat et al., reference cited). The purity of the c-Abl kinase is >90% as judged by SDS-PAGE after Coomassie blue staining. The assay contains (total volume of 30 μL): c-Abl kinase (50 ng), 20 mM Tris.HCl, pH 7.5, 10 mM MgCl2, 10 μM Na3VO4, 1 mM DTT and 0.06 μCi/assay [γ^33 P]-ATP (5 μM ATP) using 30 μg/mL poly-Ala,Glu,Lys,Tyr-6:2:5:1 (Poly-AEKY, Sigma P1152) in the presence of 1% DMSO. Reactions are terminated by adding 10 μL of 250 mM EDTA and 30 μL of the reaction mixture is transferred onto Immobilon-PVDF membrane (Millipore, Bedford, Mass., USA) previously soaked for 5 min with methanol, rinsed with water, then soaked for 5 min with 0.5% H3PO4 and mounted on vacuum manifold with disconnected vacuum source. After spotting all samples, vacuum is connected and each well rinsed with 200 μL 0.5% H3PO4. Membranes are removed and washed on a shaker with 0.5% H3PO4 (4 times) and once with ethanol. Membranes are counted after drying at ambient temperature, mounting in Packard TopCount 96-well frame, and addition of 10 μL/well of Microscint™ (Packard).

[3] = target: c-Src kinase (Homo sapiens, UniProt P12931); assay: c-Src kinase inhibition
Source text: An appropriate assay is described in Andrejauskas-Buchdunger et al., Cancer Res. 52, 5353-8 (1992).

[4] = Table 5, read-out: C-abl, IC50 class
[5] = Table 5, read-out: c-scr, IC50 class
[6] = Table 4, read-out: c-abl, activity (IC50 for kinase inhibition)

Chain of c-Src kinase (P12931 whole entry): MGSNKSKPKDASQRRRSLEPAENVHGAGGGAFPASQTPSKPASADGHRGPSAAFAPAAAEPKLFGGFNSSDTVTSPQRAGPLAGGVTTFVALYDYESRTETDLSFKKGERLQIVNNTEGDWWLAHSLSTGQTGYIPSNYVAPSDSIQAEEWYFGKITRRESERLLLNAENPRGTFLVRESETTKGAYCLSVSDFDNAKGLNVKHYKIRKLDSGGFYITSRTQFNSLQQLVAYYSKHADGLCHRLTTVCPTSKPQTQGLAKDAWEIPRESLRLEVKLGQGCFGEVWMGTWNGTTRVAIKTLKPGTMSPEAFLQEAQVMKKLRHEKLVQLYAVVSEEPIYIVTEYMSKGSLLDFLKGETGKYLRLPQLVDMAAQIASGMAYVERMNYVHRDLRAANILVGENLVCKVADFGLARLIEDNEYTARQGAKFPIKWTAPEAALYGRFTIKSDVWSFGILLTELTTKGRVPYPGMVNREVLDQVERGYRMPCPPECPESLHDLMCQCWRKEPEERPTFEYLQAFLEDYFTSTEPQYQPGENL
T1 sequence (P08069 980-1367): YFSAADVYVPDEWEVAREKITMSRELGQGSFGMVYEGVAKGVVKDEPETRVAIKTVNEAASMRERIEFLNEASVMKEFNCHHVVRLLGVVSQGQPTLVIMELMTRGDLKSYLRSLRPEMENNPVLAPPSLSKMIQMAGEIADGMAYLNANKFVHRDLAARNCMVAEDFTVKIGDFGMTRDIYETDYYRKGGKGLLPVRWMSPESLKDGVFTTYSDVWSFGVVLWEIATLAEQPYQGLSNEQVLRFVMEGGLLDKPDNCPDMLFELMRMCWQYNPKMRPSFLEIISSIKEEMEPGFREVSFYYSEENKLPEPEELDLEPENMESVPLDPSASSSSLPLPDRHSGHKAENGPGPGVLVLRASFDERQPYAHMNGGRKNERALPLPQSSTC

IC50 [1] | IC50 [2, 4] | IC50 [3, 5] | IC50 [2, 6] | IC50 ([3]; Table 4, read-out: s-Scr, activity (IC50 for kinase inhibition)) | Structure (SMILES)
> 10000 nM | < 1000 nM | < 1000 nM |  |  | CN1CCN(c2cccc(-c3cnn4c(N)c(-c5cccc(Br)c5)cnc34)c2)CC1 [Example 86, 6-(3-Bromo-phenyl)-3-[3-(4-methyl-piperazin-1-yl)-phenyl]-pyrazolo[1,5-a]pyrimidin-7-ylamine]
> 10000 nM | < 1000 nM | < 1000 nM |  |  | Cc1nc2c(-c3cccc(N4CCN(C)CC4)c3)cnn2c(N)c1-c1ccc(F)c(Cl)c1 [Example 82, 6-(3-Chloro-4-fluoro-phenyl)-5-methyl-3-[3-(4-methyl-piperazin-1-yl)-phenyl]pyrazolo[1,5-a]pyrimidin-7-ylamine]
> 10000 nM | < 1000 nM | < 1000 nM |  |  | Cc1nc2c(-c3cccc(N4CC[N+](C)([O-])CC4)c3)cnn2c(N)c1-c1ccc(F)cc1 [Example 106, 6-(4-Fluoro-phenyl)-5-methyl-3-[3-(4-methyl-4-oxy-piperazin-1-yl)-phenyl]-pyrazolo[1,5-a]pyrimidin-7-ylamine]
> 10000 nM | < 1000 nM | < 1000 nM |  |  | Cc1nc2c(-c3cccc([N+]4([O-])CC[N+](C)([O-])CC4)c3)cnn2c(N)c1-c1ccc(F)cc1 (stereo not shown) [Example 107, 6-(4-Fluoro-phenyl)-5-methyl-3-[3-(4-methyl-1,4-dioxy-piperazin-1-yl)-phenyl]-pyrazolo[1,5-a]pyrimidin-7-ylamine]
> 10000 nM | < 1000 nM | < 1000 nM |  |  | Cc1nc2c(-c3ccc(N4CCN(C)CC4)cc3)cnn2c(N)c1-c1ccc(F)cc1 [Example 79, 6-(4-Fluoro-phenyl)-5-methyl-3-[4-(4-methyl-piperazin-1-yl)-phenyl]-pyrazolo[1,5-a]pyrimidin-7-ylamine]
> 10000 nM | < 1000 nM | < 1000 nM |  |  | Cc1nc2c(-c3cccc(N4CCC(N5CCCC5)CC4)c3)cnn2c(N)c1-c1cccc(Cl)c1 [Example 102, 6-(3-Chloro-phenyl)-5-methyl-3-[3-(4-pyrrolidin-1-yl-piperidin-1-yl)-phenyl]-pyrazolo[1,5-a]pyrimidin-7-ylamine]
> 10000 nM |  |  |  |  | COc1ccc(-c2cnn3c(N)c(-c4cccc(Cl)c4)c(CF)nc23)cc1OC [Example 92, 6-(3-Chloro-phenyl)-3-(3,4-dimethoxy-phenyl)-5-fluoromethyl-pyrazolo[1,5-a]pyrimidin-7-ylamine]
> 10000 nM | < 1000 nM | 1000 to 10000 nM |  |  | COc1ccc(-c2cnn3c(N)c(-c4ccc(F)c(Cl)c4)c(C)nc23)cc1 [Example 95, 6-(3-Chloro-4-fluoro-phenyl)-3-(4-methoxy-phenyl)-5-methyl-pyrazolo[1,5-a]pyrimidin-7-ylamine]
> 10000 nM | < 1000 nM | < 1000 nM |  |  | CN1CCN(c2cccc(-c3cnn4c(N)c(Cc5cccc(Br)c5)cnc34)c2)CC1 [Example 85, 6-(3-Bromo-benzyl)-3-[3-(4-methyl-piperazin-1-yl)-phenyl]pyrazolo[1,5-a]pyrimidin-7-ylamine]
> 10000 nM | < 1000 nM | < 1000 nM |  |  | Cc1nc2c(-c3cccc(N4CCN(C)CC4)c3)cnn2c(N)c1-c1ccc(F)cc1 [Example 80, 6-(4-Fluoro-phenyl)-5-methyl-3-[3-(4-methyl-piperazin-1-yl)-phenyl]-pyrazolo[1,5-a]pyrimidin-7-ylamine]
> 10000 nM | < 1000 nM | < 1000 nM |  |  | COc1ccc(-c2cnn3c(N)c(-c4ccc(F)cc4)c(C)nc23)cc1 [Example 96, 6-(4-Fluoro-phenyl)-3-(4-methoxy-phenyl)-5-methyl-pyrazolo[1,5-a]pyrimidin-7-ylamine]
> 10000 nM | < 1000 nM | < 1000 nM |  |  | Cc1nc2c(-c3cccc(N4CCOCC4)c3)cnn2c(N)c1-c1cccc(Cl)c1 [Example 87, 6-(3-Chloro-phenyl)-5-methyl-3-(3-morpholin-4-yl-phenyl)-pyrazolo[1,5-a]pyrimidin-7-ylamine]
 |  |  | < 10000 nM | < 10000 nM | COc1ccccc1-c1cnn2c(N)c(-c3cccc(O)c3)cnc12 [Example 48, 3-[7-Amino-3-(2-methoxy-phenyl)-pyrazolo[1,5-a]pyrimidin-6-yl]-phenol]
> 10000 nM | < 1000 nM | < 1000 nM |  |  | COc1ccc(-c2cnn3c(N)c(-c4cccc(Cl)c4)c(C)nc23)cc1 [Example 88, 6-(3-Chloro-phenyl)-3-(4-methoxy-phenyl)-5-methyl-pyrazolo[1,5-a]pyrimidin-7-ylamine]
 | < 1000 nM |  |  |  | COc1cc(N2CCN(C)CC2)ccc1-c1cnn2c(N)c(-c3cccc(Cl)c3)c(C)nc12 [Example 75, 6-(3-Chloro-phenyl)-3-[2-methoxy-4-(4-methyl-piperazin-1-yl)-phenyl]-5-methyl-pyrazolo[1,5-a]pyrimidin-7-ylamine]
 |  |  | < 10000 nM |  | COc1cccc(-c2cnn3c(N)c(-c4cccc(O)c4)cnc23)c1 [Example 60, 3-[7-Amino-3-(3-methoxy-phenyl)-pyrazolo[1,5-a]pyrimidin-6-yl]-phenol]
 |  |  | < 10000 nM |  | Nc1c(-c2cccc(O)c2)cnc2c(-c3cccnc3)cnn12 [Example 46, 3-[7-Amino-3-pyridin-3-yl-pyrazolo[1,5-a]pyrimidin-6-yl]-phenol]
 |  |  | < 10000 nM |  | CN1CCN(c2ccc(-c3cnn4c(N)c(-c5cccc(O)c5)cnc34)cc2)CC1 [Example 1, 3-{7-Amino-3-[4-(4-methyl-piperazin-1-yl)-phenyl]-pyrazolo[1,5-a]pyrimidin-6-yl}-phenol]
